Results taken from US20220387345A1, “ANTI-CANCER COMPOUNDS ACTING AS NON-PGP SUBSTRATE” (ASCENTAWITS PHARMACEUTICALS, LTD., priority 2019, published 2022).
Read-outs that look alike come from different tables or passages of the source.

Key:
[1] = target: P-glycoprotein (P-GP) (Homo sapiens, UniProt P08183); experiment: Evaluation as P-Gp substrate: penetration test in MDCKII-MDR1 cells with Verapamil as inhibitor; conditions: dog, MDCK-MDR1
Method: The preparation of the […] for the penetration test: • (1) MDCKII-MDR1 cells were cultured in the cell culture bottle. The conditions of the incubator were 37° C., 5% of CO2, and 95% of the relative humidity. When the cell growth confluence was up to 70-90%, the cells were inoculated to the transwell. • (2) Before the cell inoculation, 50 μL of the culture medium was respectively added to every well of the upper compartment of the transwell, and […] of the culture medium was added to the lower compartment. The transwell was incubated in the incubator under 37° C. and 5% CO2. […] The cell suspension was transferred to the upper compartment of the 96-well transwell, wherein each upper compartment contains 50 μL of the cell suspension. The final inoculum density was 5.45×10^5 cells/cm^2. • (5) The culture medium was replaced after inoculating for 48 h. After culturing for 4-8 days, the medium was changed every other day. • (6) The process of replacing the culture medium was as the follow. The upper compartment and the lower compartment were separated. The medium in the lower compartment was discarded, and then the medium in the upper compartment was discarded. Finally, 75 μL of fresh medium was added to each upper compartment and […] of fresh medium was added to the lower compartment.
Evaluation of the Cell Monolayer Integrity • (1) The MDCKII-MER1 cells should be totally confluent and complete the differentiation after culturing for 4-8 days. The MDCKII-MER1 cells can be used for the penetration test at this time. • (2) Millipore was used to measure the resistance of the cell monolayer, and the resistance of every well was recorded. • (3) After the measuring, the transwell was put back to the incubator. • (4) The calculation of the resistance: measured resistance (ohms)×area of the membrane=TEER value (ohm-cm^2). If TERR value was <42 ohm-cm^2, the well would not be used to the penetration test.
Penetration Test of the Drug • (1) The transwell of the MDCKII-MER1 cells was taken out from the incubator. The cell monolayer was rinsed two times by the buffer solution and incubated at 37° C. for 30 min. • (2) The transport rate of the compound from the top to the bottom was tested. […] 200 μL of the acetonitrile containing the internal standard (100 nM Alprazolam, 200 nM Labetalol, 200 nM caffeine and 2 μM Ketoprofen) was added to each sample tube. After the sample tubes were vortexed for 10 min, the sample tubes were centrifuged at 3220 g for 30 min. 100 μL of the supernatant was taken to be diluted with the same volume of the water, and the LC-MS/MS analysis was executed. Each sample was adopted to the three parallel incubation. • (8) After the cell monolayer was incubated for 2 h, the integrity of the cell monolayer was evaluated by the migration assay using the fluorescence yellow, the fluorescence yellow storage solution was diluted by the buffer solution, and the final concentration was 100 μM/L. 100 μL of the fluorescence yellow solution was added to each well of the upper compartment, and 300 μL of the buffer was added to each well of the lower compartment. After the transwell was incubated at 37° C. for 30 min, 80 µL of the solution from each well of the upper compartment and the lower compartment was respectively transferred to a new 96-well plate. ELISA (Enzyme-linked Immunosorbent Assay) reader was used to perform the fluorimetry with the excitation wavelength of 480 nm and the emission wavelength of 530 nm.
The peak area was calculated by the result of the ion chromatography. The permeability coefficient (Papp, unit: cm/s×10^−6) of the compound was calculated by the formula: […]

[2] = system: H460; experiment: In vitro proliferation of NSCLC human tumor line H460, without or with specific AKR1C3 inhibitor; assay type: cell-based; conditions: H460 cells
Method: The cytotoxicity analysis of the human tumor cell lines in vitro was used.
IC50 (half maximal inhibitory concentration) values were in nanomoles and were obtained by the following. Cells were exposed in the compounds with different concentration for 2 hours. The compounds were washed off, and fresh medium was added into plates. A growth rate and a cell-survival rate were obtained by cell staining and compared with a control group treated with the medium only.
The compound was dissolved in 100% DMSO at 200 times of the desired final test concentration. When the drug was added, the compound was further diluted at 4 times of the desired final test concentration by the complete medium. 50 μL aliquots of the compound with specific concentration were added to the microwells contained 150 μL of medium, and then the final drug concentration was obtained. […] After the incubation was finished, the Alamar Blue was used to analyze and quantify the alive cells.
Before 2 h of the compound was prepared, the compound with the inhibitor was added to the cell culture. The inhibitor was […]

[3] = in the presence of specific AKR1C3 inhibitor (TH3021, 3 μmol concentration), read-out: Inhibitory effect of the proliferation of the cancer cells IC50 of +TH3021
[4] = Homo sapiens, NCI-H460, 2 h exposure, washed, further 70 h, Alamar Blue, read-out: Inhibitory effect of the proliferation of the cancer cells IC50

Chain of P-glycoprotein (P-GP) (P08183 whole entry): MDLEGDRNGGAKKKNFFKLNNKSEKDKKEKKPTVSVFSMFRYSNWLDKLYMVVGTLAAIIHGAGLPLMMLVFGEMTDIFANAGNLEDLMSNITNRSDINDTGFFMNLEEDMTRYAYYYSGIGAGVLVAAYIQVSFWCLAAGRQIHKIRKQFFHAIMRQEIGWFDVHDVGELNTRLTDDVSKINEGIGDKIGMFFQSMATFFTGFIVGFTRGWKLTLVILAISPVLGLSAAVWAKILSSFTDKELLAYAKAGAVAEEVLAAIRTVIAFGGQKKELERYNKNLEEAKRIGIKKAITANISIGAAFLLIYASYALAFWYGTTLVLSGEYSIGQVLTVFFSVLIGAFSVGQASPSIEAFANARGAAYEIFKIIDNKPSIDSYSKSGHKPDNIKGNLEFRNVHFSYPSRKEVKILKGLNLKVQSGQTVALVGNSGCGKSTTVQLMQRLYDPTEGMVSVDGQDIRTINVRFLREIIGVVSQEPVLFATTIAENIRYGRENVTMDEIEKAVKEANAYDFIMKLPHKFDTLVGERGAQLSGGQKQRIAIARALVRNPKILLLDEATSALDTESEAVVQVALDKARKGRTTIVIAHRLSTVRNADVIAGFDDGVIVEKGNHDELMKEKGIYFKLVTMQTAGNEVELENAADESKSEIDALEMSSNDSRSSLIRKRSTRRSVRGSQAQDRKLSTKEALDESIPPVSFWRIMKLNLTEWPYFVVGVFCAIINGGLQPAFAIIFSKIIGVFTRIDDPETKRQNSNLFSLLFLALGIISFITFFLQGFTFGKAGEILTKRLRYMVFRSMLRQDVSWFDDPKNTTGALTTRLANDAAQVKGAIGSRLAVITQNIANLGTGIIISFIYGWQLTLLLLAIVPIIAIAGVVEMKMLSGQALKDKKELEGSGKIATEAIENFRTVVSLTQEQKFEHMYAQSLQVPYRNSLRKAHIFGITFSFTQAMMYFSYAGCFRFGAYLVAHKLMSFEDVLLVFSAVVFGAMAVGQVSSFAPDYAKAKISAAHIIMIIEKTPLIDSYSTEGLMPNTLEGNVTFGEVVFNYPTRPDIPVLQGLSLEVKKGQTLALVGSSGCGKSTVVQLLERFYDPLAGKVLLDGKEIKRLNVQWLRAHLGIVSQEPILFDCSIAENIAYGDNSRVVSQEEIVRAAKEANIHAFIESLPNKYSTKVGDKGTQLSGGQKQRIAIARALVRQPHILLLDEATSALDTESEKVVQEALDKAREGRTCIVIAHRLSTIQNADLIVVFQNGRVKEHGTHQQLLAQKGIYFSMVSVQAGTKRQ

| SMILES | efflux ratio at 2 h [1] | IC50 [2, 3] | IC50 [2, 4] | IC50 ([2]; 2 h exposure, washed, further 70 h, Alamar Blue, read-out: Inhibitory effect of the proliferation of the cancer cells IC50) |
| --- | --- | --- | --- | --- |
| O=[N+]([O-])c1ccc(COP(=O)(N2CC2)N2CC2)cc1Oc1ccc(-c2ccc(F)cc2)c(F)c1 [Compound 1] | 1 | 40 nM | 0.87 nM | – |
| O=[N+]([O-])c1ccc(COP(=O)(N2CC2)N2CC2)cc1Oc1ccc(-c2ccc(F)cc2)cc1 [Compound 2] | 1.53 | 105 nM | 1.89 nM | – |
| O=[N+]([O-])c1cc(F)c(COP(=O)(N2CC2)N2CC2)cc1Oc1ccc(-c2ccc(F)cc2)cc1 [Compound 3] | 1.2 | 47.8 nM | 1.84 nM | – |
| O=[N+]([O-])c1ccc(COP(=O)(N2CC2)N2CC2)cc1Oc1ccc(-c2ccc(F)cc2F)c(F)c1 [Compound 4] | 0.87 | 16.3 nM | 0.67 nM | – |
| Cc1cc(F)ccc1-c1ccc(Oc2cc(COP(=O)(N3CC3)N3CC3)ccc2[N+](=O)[O-])cc1F [Compound 5] | 1.69 | 5.04 nM | 0.59 nM | – |
| O=[N+]([O-])c1ccc(COP(=O)(N2CC2)N2CC2)cc1Oc1ccc(C(F)(F)F)nc1 [Compound 6] | – | 38.2 nM | 0.46 nM | – |
| O=[N+]([O-])c1ccc(COP(=O)(N2CC2)N2CC2)cc1Oc1ccc(-c2ccc(F)cc2)nc1 [Compound 7] | 1.54 | 19.7 nM | 0.71 nM | – |
| O=[N+]([O-])c1ccc(COP(=O)(N2CC2)N2CC2)cc1Oc1ccc(-c2ccc(F)cc2F)nc1 [Compound 8] | – | 26.8 nM | < 1.5 nM | – |
| O=[N+]([O-])c1ccc(COP(=O)(N2CC2)N2CC2)cc1Oc1ccc(Cl)nc1 [Compound 9] | – | 56.1 nM | < 1.5 nM | – |
| O=[N+]([O-])c1ccc(COP(=O)(N2CC2)N2CC2)cc1Oc1ccc(-c2ccc(F)cn2)cc1 [Compound 10] | 1.43 | 29.6 nM | 1.15 nM | – |
| O=[N+]([O-])c1ccc(COP(=O)(N2CC2)N2CC2)cc1Oc1ccc(-c2ccc(F)cn2)c(F)c1 [Compound 11] | – | 92.2 nM | 0.211 nM | – |
| O=[N+]([O-])c1ccc(COP(=O)(N2CC2)N2CC2)cc1Oc1ccc(-c2ccc(F)cc2F)nc1 [Compound 12] | – | 11.4 nM | – | < 1.5 nM |
| O=[N+]([O-])c1ccc(C(OP(=O)(N2CC2)N2CC2)C(F)(F)F)cc1Oc1cccc(-c2ccc(F)cc2)c1 (stereo not shown) [Compound 13] | – | 1890 nM | 30 nM | – |
| O=[N+]([O-])c1ccc(C(OP(=O)(N2CC2)N2CC2)C(F)(F)F)cc1Oc1ccc(-c2ccc(F)cc2F)cc1 (stereo not shown) [Compound 14] | 1.26 | > 1000 nM | 11.4 nM | – |
| O=[N+]([O-])c1ccc(C(OP(=O)(N2CC2)N2CC2)C(F)(F)F)cc1Oc1ccc(-c2ccc(F)cc2)c(F)c1 (stereo not shown) [Compound 15] | 1.36 | – | 6.78 nM | – |
| O=[N+]([O-])c1ccc(C(OP(=O)(N2CC2)N2CC2)C(F)(F)F)cc1Oc1ccc(-c2ccc(F)cc2F)c(F)c1 (stereo not shown) [Compound 16] | 1.96 | > 500 nM | 7.26 nM | – |
| O=[N+]([O-])c1ccc(C(OP(=O)(N2CC2)N2CC2)C(F)(F)F)cc1Oc1ccc(-c2ccc(F)cc2)nc1 (stereo not shown) [Compound 17] | – | > 10000 nM | 35.5 nM | – |
| O=[N+]([O-])c1ccc(C(OP(=O)(N2CC2)N2CC2)C(F)(F)F)cc1Oc1ccc(-c2ccc(C(F)(F)F)cc2)nc1 (stereo not shown) [Compound 18] | – | > 10000 nM | 313 nM | – |
| O=[N+]([O-])c1ccc(C(OP(=O)(N2CC2)N2CC2)C(F)(F)F)cc1Oc1ccc(-c2ccc(F)cn2)cc1 (stereo not shown) [Compound 19] | – | > 10000 nM | 46.8 nM | – |
| Cc1ccc(NC(=O)c2ccc(CN3CCN(C)CC3)cc2)cc1Nc1nccc(-c2cccnc2)n1 [Imatinib, reference compound] | 18.1 | – | – | – |
| COc1cc2nc(N3CCN(C(=O)c4ccco4)CC3)nc(N)c2cc1OC [Prazosin, reference compound] | 2.87 | – | – | – |
